Drawing on US10981932B2, “Macrocyclic indole derivatives” (Bayer Aktiengesellschaft, priority 2016, dated 2021), this text covers IC50 and EC50 for nine compounds.

“And” between values parts separate entries of the source, which are not always exact repeats. Identical values can stand only once. Counter-ions that a name gives are not always drawn. Like-named read-outs stand apart in the source and are kept apart here.

For data set [1], the target named is MCL-1 (Homo sapiens, UniProt Q07820). The data set is described as follows: Protein-protein interaction assay MCL-1/Noxa BH3 peptide (MCL-1 assay), TR-FRET. It is filed as binding. Particulars: MBP-MCL-1 / Noxa BH3-derived peptide, median. A digest of the protocol:
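Displacement of the biotinylated Noxa BH3 peptide from MBP-tagged human MCL-1 (1 nM) is detected by time-resolved FRET. Compounds are tested in duplicate across eleven concentrations up to 20 μM, incubated 1 h at 22 °C and overnight at 4 °C, and IC50 is fitted with a four-parameter equation.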
(In general: Time-resolved FRET reads energy transfer from a long-lived donor to a nearby acceptor.)

The test system of data set [2] is SUDHL5. Description: Induction of caspase-3/7 activity (Caspase-Glo 3/7), SUDHL5. The format is cell-based. Particulars: caspase-3/7 induction, SUDHL5 cells, 3 h treatment, median. A digest of the protocol:
(§1)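 Caspase-Glo 3/7 luminescence, 3 h compound exposure, 37 °C, humidified. Minus medium-only blank. EC50 fit: C0=1, plateau = reference max induction.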

Data set [3] relates to SUDHL10. The data set is described as follows: Induction of caspase-3/7 activity (Caspase-Glo 3/7), SUDHL10. It is filed as cell-based. The settings on record: caspase-3/7 induction, SUDHL10 cells, 3 h treatment, median. A digest of the protocol: as §1
The test system of data set [4] is SUDHL5. Description: Anti-proliferative effect (CellTiter-Glo, 72 h), SUDHL5. The format is cell-based. The settings on record: SUDHL5 cells, antiproliferation, 72 h incubation, median, read-out: Antiproli SUDHL5 [M] (median). The gist of the method: (§2)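 CTG luminescence read-out after 72 h compound exposure, 37 °C, humidified. Time-zero reference plate read at plating.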
On the technique in general: Cellular ATP, detected with luciferase, serves as a proxy for viable cell number.

In data set [5] the test system is SUDHL10. Description: Anti-proliferative effect (CellTiter-Glo, 72 h), SUDHL10. The format is cell-based. Particulars: SUDHL10 cells, antiproliferation, 72 h incubation, median, read-out: Antiproli SUDHL10 [M] (median). A digest of the protocol: as §2
Data set [6] concerns OPM2. The data set is described as follows: Anti-proliferative effect (CellTiter-Glo, 72 h), OPM2. The format is cell-based. The settings on record: OPM2 cells, median, read-out: IC50 antiproliferation assay OPM2 [M] (median). The gist of the method: as §2
For data set [7], the system named is A2780. Description: Anti-proliferative effect (CellTiter-Glo, 72 h), A2780. The format is cell-based. The settings on record: A2780 cells, median, read-out: IC50 antiproliferation assay A2780 [M] (median). The gist of the method:
as §2

Data set [8] concerns SUDHL5. The data set is described as follows: Induction of cytotoxicity (CellTiter-Glo, 5 h), SUDHL5.
For data set [9], the system named is SUDHL10. Description: Induction of cytotoxicity (CellTiter-Glo, 5 h), SUDHL10.
Description: Therefore, cytotoxicity assays were run in parallel in SUDHL5 and SUDHL10 cells.
The different cell lines were plated in culture medium (RPMI 1640 [GIBCO #22400-089]supplemented with 10% Fetal Bovine Serum) at a density of 3.300 cells in 30 μl/well in a sterile, solid black, flat bottom, polystyrene, TC-treated 384-well microplate (Corning #3571) using Multidrop Combi Reagent Dispenser. As a control, medium without cells was also added to the plate. Cells were incubated in a humidified incubator at 37° C. overnight. On the next day, the cells were treated with compounds (stock solution, 10 mM in DMSO) using the HP D300 Digital Dispenser in a concentration range of 3.3×10e-5 M (33 μM) to 5×10e-9 M (5 nM) in a single-dot curve with at least 16 dilutions and a DMSO concentration of 0.33%. Rim wells were excluded. The cells were incubated for 5 h hours in a humidified incubator at 37° C. After this incubation, 30 μl of CellTiter-Glo@ Luminescent Cell Viability reagent (Promega, G7573) was added to each well using the Multidrop Combi Reagent Dispenser, followed by 15 min incubation on a shaker at room temperature. Finally, luminescence was read at 0.1 ms, with a gain of 3000 using the PHERAstar FS microplate reader (BMG Labtech).
The Bella DRC Master Sheet was used to calculate IC50s, with fixed CI=0 and C0=1.
The mark [10] stands for this setting: read-out: Cytotox SUDHL5 [M] (median), SUDHL5 cells, cytotoxicity induction, CellTiter-Glo, 5 h incubation, median.
The mark [11] stands for this setting: Homo sapiens, SU-DHL10, 5 h, read-out: Cytotox SUDHL10 [M] (median), SUDHL10 cells, cytotoxicity induction, CellTiter-Glo, 5 h incubation, median.
The mark [12] stands for this setting: read-out: Cytotox SUDHL10 [M] (median), SUDHL10 cells, cytotoxicity induction, CellTiter-Glo, 5 h incubation, median.
The mark [13] stands for this setting: Homo sapiens, SU-DHL-5, 5 h, read-out: Cytotox SUDHL5 [M] (median), SUDHL5 cells, cytotoxicity induction, CellTiter-Glo, 5 h incubation, median.

Chain of MCL-1 (Q07820 whole entry): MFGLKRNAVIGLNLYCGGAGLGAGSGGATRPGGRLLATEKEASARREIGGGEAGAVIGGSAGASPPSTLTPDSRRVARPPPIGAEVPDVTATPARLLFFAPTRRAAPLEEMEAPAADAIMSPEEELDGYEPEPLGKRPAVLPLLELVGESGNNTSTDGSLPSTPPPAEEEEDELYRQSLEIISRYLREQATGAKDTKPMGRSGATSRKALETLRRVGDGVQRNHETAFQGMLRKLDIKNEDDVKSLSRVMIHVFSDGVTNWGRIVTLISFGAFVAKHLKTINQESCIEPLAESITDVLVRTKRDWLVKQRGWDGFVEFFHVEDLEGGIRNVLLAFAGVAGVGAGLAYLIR

As to `CN1CCCn2c(C(=O)O)c(CCCOc3cccc4ccccc34)c3cccc(c32)-c2c(COc3ccc(N4CCOCC4)cc3)nn(C)c2C1` (single isomer, unassigned) [Example 1-88, (+)-7,9-dimethyl-11-{[4-(morpholin-4-yl)phenoxy]methyl}-1-[3-(naphthalen-1-yloxy)propyl]-4,5,6,7,8,9-hexahydropyrazolo[3′,4′:7,8][1,5]diazecino[9,10,1-hi]indole-2-carboxylic Acid], the IC50 was 0.00789 µM in data set [1]; above 3.3e-05 M in data set [4] (Homo sapiens, SU-DHL-5, 72 h); above 3.3e-05 M in data set [5] (Homo sapiens, SU-DHL10, 72 h); above 3.3e-05 M in data set [6] (Homo sapiens, OPM-2, 72 h); above 3.3e-05 M in data set [7] (Homo sapiens, A2780, 72 h); 5.9e-06 M in data set [8] (setting [10]). Also, the IC50 in [9] (setting [11]) was 6.19e-06 M. The EC50 is 6.03 µM in [2] (Homo sapiens, SU-DHL-5, 3 h) and 6.35 µM in [3].

With `CN1CCCn2c(C(=O)O)c(CCCOc3cccc4ccccc34)c3cccc(c32)-c2c(COc3ccc(N4CCOCC4)cc3)nn(C)c2C1` (single isomer, unassigned) [Example 1-89, (−)-7,9-dimethyl-11-{[4-(morpholin-4-yl)phenoxy]methyl}-1-[3-(naphthalen-1-yloxy)propyl]-4,5,6,7,8,9-hexahydropyrazolo[3′,4′:7,8][1,5]diazecino[9,10,1-hi]indole-2-carboxylic Acid], the IC50 is 0.0541 µM in [1]; above 3.3e-05 M in data set [4]; 2.02e-05 M in data set [5]; above 3.3e-05 M in [6]; above 3.3e-05 M in data set [7]; 1.39e-05 M in data set [8] (setting [10]). Moreover, the IC50 in data set [9] (setting [12]) was determined as 1.14e-05 M. Besides, the values for the EC50 in data set [2] and in [3] were 11.7 µM and 27.5 µM, respectively.

With `CCN(CC)S(=O)(=O)N1CCN(c2ccc(OCc3nn(C)c4c3-c3cccc5c(CCCOc6cccc7ccccc67)c(C(=O)O)n(c35)CCCCOC4)cc2)CC1` (single isomer, unassigned; enantiomer 1) [Example 1-4, 3-({4-[4-(diethylsulfamoyl)piperazin-1-yl]phenoxy}methyl)-1-methyl-7-[3-(naphthalen-1-yloxy)propyl]-1,10,11,12,13,15-hexahydropyrazolo[4′,3′:9,10][1,6]oxazacycloundecino[8,7,6-hi]indole-8-Carboxylic acid (Enantiomer 1)], the IC50 turned out to be 0.304 µM in data set [1]; 2.43e-06 M in data set [4]; 1.73e-06 M in [5] (Homo sapiens, SU-DHL10, 72 h); 3.36e-06 M in data set [6]; 2.47e-06 M in [7]; 1.83e-05 M in data set [8] (setting [10]). The IC50 in [9] (setting [11]) was found to be 7.42e-06 M. For the same compound, the concentration for a half-maximal effect (EC50) in data set [2] was 15.2 µM; in [3] (Homo sapiens, SU-DHL10, 3 h), 5.18 µM.

For `COCc1nn(C)c2c1-c1cccc3c(CCCOc4cccc5ccccc45)c(C(=O)O)n(c13)CCCN(C)C2` (single isomer, unassigned; enantiomer 1) [Example 1-103, 11-(methoxymethyl)-7,9-dimethyl-1-[3-(1-naphthyloxy)propyl]-4,5,6,7,8,9-hexahydropyrazolo[3′,4′:7,8][1,5]diazecino[9,10,1-hi]indole-2-carboxylic Acid (Enantiomer 1)], the IC50 in [1] is 0.00735 µM; in data set [4] (Homo sapiens, SU-DHL-5, 72 h) it was 3.92e-06 M; in data set [5] (Homo sapiens, SU-DHL10, 72 h), 1.02e-05 M; in [6] (Homo sapiens, OPM-2, 72 h), 1.58e-05 M; in [7] (Homo sapiens, A2780, 72 h), above 3.3e-05 M; in [8] (setting [13]), 3.97e-06 M. In addition, the IC50 in data set [9] (setting [11]) stood at 1.27e-05 M. Moreover, the EC50 in data set [2] (Homo sapiens, SU-DHL-5, 3 h) was found to be 2.83 µM; in data set [3] (Homo sapiens, SU-DHL10, 3 h), 7.79 µM.

Regarding `Cc1c2c(nn1CCN1CCOCC1)COCCCCn1c(C(=O)O)c(CCCOc3cccc4ccccc34)c3cccc-2c31` (single isomer, unassigned; enantiomer 1) [Example 054, 3-methyl-2-[2-(morpholin-4-yl)ethyl]-7-[3-(naphthalen-1-yloxy)propyl]-2,10,11,12,13,15-hexahydropyrazolo[4′,3′:9,10][1,6]oxazacycloundecino[8,7,6-hi]indole-8-carboxylic acid-N-ethylethanamine Salt (Enantiomer 1)], the IC50 in data set [1] turned out to be 0.00156 µM; in data set [4] (Homo sapiens, SU-DHL-5, 72 h), 8.08e-07 M; in [5] it was 2.44e-06 M; in data set [6], 7.46e-06 M; in data set [7] (Homo sapiens, A2780, 72 h), 2.48e-05 M; in data set [8] (setting [10]), 1.61e-06 M. For the same compound, the IC50 in [9] (setting [12]) amounted to 4.68e-06 M. Further, the figures for the EC50 in [2] and in data set [3] were 1.47 µM and 6.64 µM, respectively.

Consider `Cn1nc(COc2ccc(N3CCOCC3)cc2)c2c1COCCCCn1c(C(=O)O)c(CCCOc3cccc4ccccc34)c3cccc-2c31` (single isomer, unassigned; enantiomer 1) [Example 122, 1-methyl-3-{[4-(morpholin-4-yl)phenoxy]methyl}-7-[3-(naphthalen-1-yloxy)propyl]-1,10,11,12,13,15-hexahydropyrazolo[4′,3′:9,10][1,6]oxazacycloundecino[8,7,6-hi]indole-8-carboxylic Acid (Enantiomer 1)], for which the IC50 in [1] was 0.0577 µM; in [4], 1.03e-05 M; in data set [5] (Homo sapiens, SU-DHL10, 72 h) it was 1.17e-05 M; in [6] (Homo sapiens, OPM-2, 72 h), 2.79e-06 M; in data set [7] (Homo sapiens, A2780, 72 h), 7.4e-06 M; in data set [8] (setting [10]), 2.92e-05 M. The IC50 in data set [9] (setting [11]) was above 3.3e-05 M. Moreover, the figures for the EC50 in [2] and in data set [3] were 27.5 µM and 21.8 µM, respectively.

In the case of `CN1CCCn2c(C(=O)O)c(CCCOc3cccc4ccccc34)c3cccc(c32)-c2c(CNCC(F)(F)F)nn(C)c2C1` (single isomer, unassigned; enantiomer 1) [Example 130, 7,9-dimethyl-1-(3-(naphthalen-1-yloxy)propyl-11-{[(2,2,2-trifluoroethyl)amino]methyl}-4,5,6,7,8,9-hexahydropyrazolo[3′,4′:7,8][1,5]diazecino[9,10,1-hi]indole-2-carboxylic acid-N-ethylethanamine Salt (Enantiomer 1)], the IC50 was 0.0331 µM in data set [1]; 1.17e-05 M in data set [4] (Homo sapiens, SU-DHL-5, 72 h); 6.42e-06 M in data set [5] (Homo sapiens, SU-DHL10, 72 h); 6e-06 M in [6]; 1.11e-05 M in data set [7] (Homo sapiens, A2780, 72 h); 1.53e-05 M in data set [8] (setting [13]). The IC50 in data set [9] (setting [11]) was 1.71e-05 M; in [9] (setting [12]), above 3.3e-05 M. For the same compound, the EC50 in data set [2] (Homo sapiens, SU-DHL-5, 3 h) was 18.9 µM; in [3] (Homo sapiens, SU-DHL10, 3 h), 24.4 µM; in [3], above 33 µM.

Consider `COCc1nn(C)c2c1-c1cccc3c(CCCOc4cccc5ccccc45)c(C(=O)O)n(c13)CCCCOC2` (single isomer, unassigned; enantiomer 1) [Example 159, 3-(methoxymethyl)-1-methyl-7-[3-(naphthalen-1-yloxy)propyl]-1,10,11,12,13,15-hexahydropyrazolo[4′,3′:9,01][1,6]oxazacycloundecino[8,7,6-hi]indole-8-carboxylic acid-N-ethylethanamine Salt (Enantiomer 1)], for which the IC50 was 0.0238 µM in data set [1]; 1.75e-05 M in data set [4]; 2.98e-05 M and > 3.3e-05 M in data set [5]; above 3.3e-05 M in [6] (Homo sapiens, OPM-2, 72 h); above 3.3e-05 M in data set [7] (Homo sapiens, A2780, 72 h); 1.76e-05 M in [8] (setting [13]). In addition, the figures for the IC50 in data set [9] (setting [11]) and in data set [9] (setting [12]) were 3.05e-05 M and above 3.3e-05 M, respectively. Also, the EC50 is 13.8 µM in data set [2] (Homo sapiens, SU-DHL-5, 3 h); 28.6 µM in data set [3] (Homo sapiens, SU-DHL10, 3 h); above 33 µM in [3].

For `CCOCc1nn(C)c2c1-c1cccc3c(CCCOc4cccc5ccccc45)c(C(=O)O)n(c13)CCCCOC2` (single isomer, unassigned; enantiomer 1) [Example 169, 3-(ethoxymethyl)-1-methyl-7-[3-(naphthalen-1-yloxy)propyl]-1,10,11,12,13,15-hexahydropyrazolo[4′3′:9,10][1,6]oxazacycloundecino[8,7,6-hi]indole-8-carboxylic Acid (Enantiomer 1)], the IC50 in [1] was 0.0184 µM; in [4], 2.68e-05 M; in [5], 2.02e-05 M; in data set [6] (Homo sapiens, OPM-2, 72 h), 2.04e-05 M; in [7] (Homo sapiens, A2780, 72 h) it was 2.02e-05 M; in data set [8] (setting [10]) it was 1.74e-05 M and > 3.3e-05 M. Further, the results for the IC50 in [9] (setting [11]) and in data set [9] (setting [12]) were 2.01e-05 M and above 3.3e-05 M, respectively. Also, the EC50 in data set [2] and in data set [3] was above 33 µM in each case.

As a reminder, the EC50 is the midpoint of the concentration-response curve. High values mean weaker potency, low ones greater potency.
